From patent US20220281848A1, “PYRAZOLE-SUBSTITUTED PYRROLIDINONES AS HERBICIDES” (FMC Corporation, priority 2019, published 2022)

System: plants
Test: Test D pre-emergence, other plants of Tables D1 and D3
Format: in vivo
Conditions: preemergent, 20 DAA
Protocol: A formulation containing 50 g/L of the test chemical was prepared by dissolving the active ingredient in a mixture of organic solvents and emulsifier, details of which are provided in the table. This formulation was then mixed with a small, variable amount of acetone to aid dissolution, before addition of a 0.2% v/v aqueous solution of an adjuvant, as the aqueous diluent, to form an aqueous spray solution which contains a predetermined concentration of the active ingredient.
This aqueous spray solution was then sprayed onto plants including maize and wheat that had been seed treated with a herbicide safener, after one day's cultivation (for pre-emergence) or after about 12 days' cultivation (for post-emergence). The plants were grown from seeds sown in standard soil, placed in a glasshouse under controlled conditions (at 24/18° C. or 20/16° C., day/night; 16 h light; 65% humidity). After spray application the plants were then grown in a glasshouse under the same conditions and watered twice daily. After 15 d for post-emergence and 20 DAA for pre-emergence the test was evaluated (100=total damage to plant; 0=no damage to plant).

In the case of `CN1CC(c2cc(C(F)(F)F)n(C)n2)C(C(=O)Nc2cccc(F)c2C(F)(F)F)C1=O` (racemic) [Compound 19], the “damage to plant (100=total damage to plant; 0=no damage to plant), ABUTH” value (rate 15) is reported as 0, the “damage to plant (100=total damage to plant; 0=no damage to plant), ABUTH” value (rate 30) is reported as 0 and the “damage to plant (100=total damage to plant; 0=no damage to plant), ABUTH” value (rate 60) is reported as 0. The “damage to plant (100=total damage to plant; 0=no damage to plant), ABUTH” value (rate 130) was 0, the “damage to plant (100=total damage to plant; 0=no damage to plant), ABUTH” value (rate 250) was 0 and the “damage to plant (100=total damage to plant; 0=no damage to plant), ABUTH” value (rate 500) was 10. The “damage to plant (100=total damage to plant; 0=no damage to plant), AMARE” value (rate 15) was 0, the “damage to plant (100=total damage to plant; 0=no damage to plant), AMARE” value (rate 30) was 0 and the “damage to plant (100=total damage to plant; 0=no damage to plant), AMARE” value (rate 60) was 0. For the same molecule, the “damage to plant (100=total damage to plant; 0=no damage to plant), AMARE” value (rate 130) was 0, the “damage to plant (100=total damage to plant; 0=no damage to plant), AMARE” value (rate 250) was 0 and the “damage to plant (100=total damage to plant; 0=no damage to plant), AMARE” value (rate 500) was 0. For the same molecule, the “damage to plant (100=total damage to plant; 0=no damage to plant), BIDPI” value (rate 15) was 0, the “damage to plant (100=total damage to plant; 0=no damage to plant), BIDPI” value (rate 30) was 0 and the “damage to plant (100=total damage to plant; 0=no damage to plant), BIDPI” value (rate 60) was 0. For the same molecule, the “damage to plant (100=total damage to plant; 0=no damage to plant), BIDPI” value (rate 130) was 0, the “damage to plant (100=total damage to plant; 0=no damage to plant), BIDPI” value (rate 250) was 0 and the “damage to plant (100=total damage to plant; 0=no damage to plant), BIDPI” value (rate 500) was 0. The “damage to plant (100=total damage to plant; 0=no damage to plant), BRAPL” value (rate 15) was 0, the “damage to plant (100=total damage to plant; 0=no damage to plant), BRAPL” value (rate 30) was 40 and the “damage to plant (100=total damage to plant; 0=no damage to plant), BRAPL” value (rate 60) was 70. The “damage to plant (100=total damage to plant; 0=no damage to plant), BRAPL” value (rate 130) was 80, the “damage to plant (100=total damage to plant; 0=no damage to plant), BRAPL” value (rate 250) was 80 and the “damage to plant (100=total damage to plant; 0=no damage to plant), BRAPL” value (rate 500) was 90. For the same molecule, the “damage to plant (100=total damage to plant; 0=no damage to plant), CYPES” value (rate 15) was 0, the “damage to plant (100=total damage to plant; 0=no damage to plant), CYPES” value (rate 30) was 0 and the “damage to plant (100=total damage to plant; 0=no damage to plant), CYPES” value (rate 60) was 0. For the same molecule, the “damage to plant (100=total damage to plant; 0=no damage to plant), CYPES” value (rate 130) was 0, the “damage to plant (100=total damage to plant; 0=no damage to plant), CYPES” value (rate 250) was 0 and the “damage to plant (100=total damage to plant; 0=no damage to plant), CYPES” value (rate 500) was 0. The “damage to plant (100=total damage to plant; 0=no damage to plant), DIGSA” value (rate 15) was 70, the “damage to plant (100=total damage to plant; 0=no damage to plant), DIGSA” value (rate 30) was 90 and the “damage to plant (100=total damage to plant; 0=no damage to plant), DIGSA” value (rate 60) was 90. The “damage to plant (100=total damage to plant; 0=no damage to plant), DIGSA” value (rate 130) was 90, the “damage to plant (100=total damage to plant; 0=no damage to plant), DIGSA” value (rate 250) was 90 and the “damage to plant (100=total damage to plant; 0=no damage to plant), DIGSA” value (rate 500) was 100. For the same molecule, the “damage to plant (100=total damage to plant; 0=no damage to plant), ECHCG” value (rate 15) was 0, the “damage to plant (100=total damage to plant; 0=no damage to plant), ECHCG” value (rate 30) was 20 and the “damage to plant (100=total damage to plant; 0=no damage to plant), ECHCG” value (rate 60) was 80. For the same molecule, the “damage to plant (100=total damage to plant; 0=no damage to plant), ECHCG” value (rate 130) was 90, the “damage to plant (100=total damage to plant; 0=no damage to plant), ECHCG” value (rate 250) was 90 and the “damage to plant (100=total damage to plant; 0=no damage to plant), ECHCG” value (rate 500) was 90. For the same molecule, the “damage to plant (100=total damage to plant; 0=no damage to plant), ELEIN” value (rate 15) was 0, the “damage to plant (100=total damage to plant; 0=no damage to plant), ELEIN” value (rate 30) was 0 and the “damage to plant (100=total damage to plant; 0=no damage to plant), ELEIN” value (rate 60) was 0. For the same molecule, the “damage to plant (100=total damage to plant; 0=no damage to plant), ELEIN” value (rate 130) was 0, the “damage to plant (100=total damage to plant; 0=no damage to plant), ELEIN” value (rate 250) was 0 and the “damage to plant (100=total damage to plant; 0=no damage to plant), ELEIN” value (rate 500) was 0. The “damage to plant (100=total damage to plant; 0=no damage to plant), EPHHL” value (rate 15) was 0, the “damage to plant (100=total damage to plant; 0=no damage to plant), EPHHL” value (rate 30) was 0 and the “damage to plant (100=total damage to plant; 0=no damage to plant), EPHHL” value (rate 60) was 0. The “damage to plant (100=total damage to plant; 0=no damage to plant), EPHHL” value (rate 130) was 0, the “damage to plant (100=total damage to plant; 0=no damage to plant), EPHHL” value (rate 250) was 0 and the “damage to plant (100=total damage to plant; 0=no damage to plant), EPHHL” value (rate 500) was 0. The “damage to plant (100=total damage to plant; 0=no damage to plant), GLXMA” value (rate 15) was 0, the “damage to plant (100=total damage to plant; 0=no damage to plant), GLXMA” value (rate 30) was 0 and the “damage to plant (100=total damage to plant; 0=no damage to plant), GLXMA” value (rate 60) was 0. For the same molecule, the “damage to plant (100=total damage to plant; 0=no damage to plant), GLXMA” value (rate 130) was 0, the “damage to plant (100=total damage to plant; 0=no damage to plant), GLXMA” value (rate 250) was 0 and the “damage to plant (100=total damage to plant; 0=no damage to plant), GLXMA” value (rate 500) was 0. The “damage to plant (100=total damage to plant; 0=no damage to plant), IPOHE” value (rate 15) was 0, the “damage to plant (100=total damage to plant; 0=no damage to plant), IPOHE” value (rate 30) was 0 and the “damage to plant (100=total damage to plant; 0=no damage to plant), IPOHE” value (rate 60) was 0. The “damage to plant (100=total damage to plant; 0=no damage to plant), IPOHE” value (rate 130) was 0, the “damage to plant (100=total damage to plant; 0=no damage to plant), IPOHE” value (rate 250) was 0 and the “damage to plant (100=total damage to plant; 0=no damage to plant), IPOHE” value (rate 500) was 0. The “damage to plant (100=total damage to plant; 0=no damage to plant), ORYSA” value (rate 15) was 0, the “damage to plant (100=total damage to plant; 0=no damage to plant), ORYSA” value (rate 30) was 0 and the “damage to plant (100=total damage to plant; 0=no damage to plant), ORYSA” value (rate 60) was 0. The “damage to plant (100=total damage to plant; 0=no damage to plant), ORYSA” value (rate 130) was 0, the “damage to plant (100=total damage to plant; 0=no damage to plant), ORYSA” value (rate 250) was 0 and the “damage to plant (100=total damage to plant; 0=no damage to plant), ORYSA” value (rate 500) was 0. For the same molecule, the “damage to plant (100=total damage to plant; 0=no damage to plant), PANMI” value (rate 15) was 0, the “damage to plant (100=total damage to plant; 0=no damage to plant), PANMI” value (rate 30) was 0 and the “damage to plant (100=total damage to plant; 0=no damage to plant), PANMI” value (rate 60) was 0. The “damage to plant (100=total damage to plant; 0=no damage to plant), PANMI” value (rate 130) was 0, the “damage to plant (100=total damage to plant; 0=no damage to plant), PANMI” value (rate 250) was 0 and the “damage to plant (100=total damage to plant; 0=no damage to plant), PANMI” value (rate 500) was 0. The “damage to plant (100=total damage to plant; 0=no damage to plant), SETFA” value (rate 15) was 0, the “damage to plant (100=total damage to plant; 0=no damage to plant), SETFA” value (rate 30) was 60 and the “damage to plant (100=total damage to plant; 0=no damage to plant), SETFA” value (rate 60) was 80. The “damage to plant (100=total damage to plant; 0=no damage to plant), SETFA” value (rate 130) was 90, the “damage to plant (100=total damage to plant; 0=no damage to plant), SETFA” value (rate 250) was 90 and the “damage to plant (100=total damage to plant; 0=no damage to plant), SETFA” value (rate 500) was 90. The “damage to plant (100=total damage to plant; 0=no damage to plant), SORVU” value (rate 15) was 0, the “damage to plant (100=total damage to plant; 0=no damage to plant), SORVU” value (rate 30) was 0 and the “damage to plant (100=total damage to plant; 0=no damage to plant), SORVU” value (rate 60) was 0. For the same molecule, the “damage to plant (100=total damage to plant; 0=no damage to plant), SORVU” value (rate 130) was 0, the “damage to plant (100=total damage to plant; 0=no damage to plant), SORVU” value (rate 250) was 0 and the “damage to plant (100=total damage to plant; 0=no damage to plant), SORVU” value (rate 500) was 0.
